“Also recorded” adds a separate entry of the source.

One data set concerns the target T1, ABCB1 (Homo sapiens, UniProt P08183).
T1 construct: ABCB1-overexpressing SW620V cells; endogenous in cells; host or cells: SW620V (vincristine-resistant variant of SW620, developed in the authors' laboratory by drug selection)
Briefly: UIC-2 antibody-binding assay in SW620V cells. It counts as cell-based. The note with it: 1 μM compound, n = 3. The source says:
(§1) To obtain deeper insight into the direct interactions between the investigated inhibitors and transporter protein molecules, we used two commercially available antibodies, UIC-2 and 5D3, which recognize the active forms of ABCB1 and ABCG2, respectively. These antibodies specifically recognize epitopes that are exposed when the transporter interacts with the allocrite.
(§2) A total of 106 parental SW620 cells expressing low level of ABC proteins or their multidrug - resistant variant SW620V cells (overexpressing ABCB1) or SW620Mito cells (overexpressing ABCG2) were suspended in 1 mL of complete culture medium supplemented with solvent (DMSO), a positive control (vincristine/mitoxantrone), or an investigated compound at a final concentration of 1 µM. APC-conjugated UIC2 anti-ABCB1/FITC-conjugated 5D3 anti-ABCG2 antibody or the respective isotype control was then added to a final concentration of 5 µg/mL, and the samples were incubated at 37°C for 60 min. Then, the cells were washed three times (100 × g for 10 min) with fresh medium and analyzed using a FACSymphony A1 (Becton, Dickinson and Company, New Jersey, USA) instrument. Results were expressed as a difference of median of fluorescence of a given sample (specific binding of antibody) and the respec tive isotype control (unspecific binding). […]
(§3) All experiments were performed at least three times, and the data were statistically analyzed

A further data set concerns the target T2, ABCG2 (Homo sapiens, UniProt Q9UNQ0).
T2 construct: ABCG2-overexpressing SW620C and SW620Mito; endogenous in cells; host or cells: SW620Mito (mitoxantrone-resistant variant of SW620, developed in the authors' laboratory by drug selection)
T2 sequence (Q9UNQ0 1-655): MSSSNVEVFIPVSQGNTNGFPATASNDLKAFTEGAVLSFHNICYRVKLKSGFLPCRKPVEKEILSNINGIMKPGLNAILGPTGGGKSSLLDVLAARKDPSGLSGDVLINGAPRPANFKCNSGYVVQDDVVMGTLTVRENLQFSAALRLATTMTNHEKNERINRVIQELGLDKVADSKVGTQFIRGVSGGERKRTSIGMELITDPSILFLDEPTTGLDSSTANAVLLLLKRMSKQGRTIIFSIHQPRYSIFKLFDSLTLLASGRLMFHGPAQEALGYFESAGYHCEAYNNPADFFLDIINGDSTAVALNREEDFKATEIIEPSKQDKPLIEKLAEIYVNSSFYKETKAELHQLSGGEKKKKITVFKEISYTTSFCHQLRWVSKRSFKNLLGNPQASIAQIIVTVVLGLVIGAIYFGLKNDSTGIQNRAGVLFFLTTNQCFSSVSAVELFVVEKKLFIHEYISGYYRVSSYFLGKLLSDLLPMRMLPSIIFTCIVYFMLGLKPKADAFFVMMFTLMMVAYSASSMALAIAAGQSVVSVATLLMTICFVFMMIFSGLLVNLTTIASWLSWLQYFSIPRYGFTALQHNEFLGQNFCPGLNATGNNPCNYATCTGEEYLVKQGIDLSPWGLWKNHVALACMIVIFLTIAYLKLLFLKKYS
Briefly: 5D3 antibody-binding assay in SW620Mito cells. The note with it: 1 μM compound, n = 3. In kind it is cell-based.
Text: as §1, §2, §3

Another data set relates to SW620V cells. Briefly: Synergy determination (Bliss model, SynergyFinder), SW620V. It counts as cell-based, human. The note with it: drug vincristine + additive; for synergy score: Bliss model.
Text: (§4) In an ideal setting, the effect of cell exposure to a combination of a chemotherapeutic and an MDR inhibitor should be synergistic. […] The highest synergy scores identified an optimal concentration range where the combination exerted its maximal effect. […] In cisplatin-resistant SW620C cells, the low or lack of synergy observed for most compounds may be due to the additive effects of cisplatin and 4 rather than a true synergistic interaction. […]
(§5) To evaluate the potential interactions between putative ABC inhibitors and anticancer drugs, we utilized the Bliss independence model, as implemented in the SynergyFinder web application.13, 14 Synergy scores and the most synergistic area scores were calculated based on the normalized dose–response matrices. A synergy score below −10 indicates likely […]
(§6) above 10 is indicative of likely synergistic interactions.
as §3

The test system of another data set is SW620M cells. Kind of data set: Synergy determination (Bliss model, SynergyFinder), SW620M. In kind it is cell-based, human. The note with it: drug methotrexate + additive; for synergy score: Bliss model.
Text: as §4, §5, §6, §3

Data set [1] has as its system ABCB1-overexpressing SW620V cells. Kind of data set: MDR reversal assay (ERP), SW620V. It counts as cell-based, human. Conditions: for ERP value, vincristine + compound: SW620V (xlsx); for ERP = IC50(drug)MDR/IC50(drug+4)MDR: vincristine, SW620V. From the text:
We investigated the potency of 4a–e to inhibit ABC transporters (ABCB1, ABCC1, and ABCG2) by determining their enhancement of reversal potency (ERP) values. ERP represents fold changes in the IC50 values of anticancer drugs in multidrug-resistant cancer sublines (ABCB1-overexpressing SW620D, SW620E, and SW620V; ABCC1-overexpressing SW620M; ABCG2-overexpressing SW620C and SW620Mito) exposed to a combination of the investigated compounds and anticancer agents at equimolar concentrations, compared with values obtained with drugs alone (Tables S2 and S3 and Figure ).
Standards. Multidrug-resistant variants of SW620 cells were developed in our laboratory as described previously.10, 11 All cells were cultured under standard conditions (37°C, 5% CO2, 100% humidity) in high-glucose DMEM supplemented with GlutaMaxTM, HEPES (ThermoFisher Scientific, USA), and 10% fetal bovine serum (EURx, Poland). Cells were routinely tested for potential Mycoplasma contamination using the MycoProbe Mycoplasma Detection kit (R&D System, USA).
In total, 104 cells in 100 µL of complete medium were plated per well of a 96-well plate and left overnight to allow cells to adhere to the surface. Then, the cells were exposed to a desired concentration of tested compound(s). Stock solutions were prepared in DMSO and used immediately. The final DMSO concentration was constant and nontoxic (0.1% v/v). After 70-h incubation, neutral red was added to the final concentration of 1 mM. After another 2 h, the medium was aspirated, and cells were washed twice with PBS. Dye was released using 100 µL of a solubilizer (1% acetic acid in 50% ethanol) on an orbital shaker (10 min). Absorbance was read at 540 nm using EnVision Multilabel Plate Reader (Perkin Elmer, USA). Results were expressed as % of control. The IC50 parameters were calculated using GraphPad Prism version 10 (GraphPad Software, Boston, Massachusetts USA).
The enhancement of reversal potency (ERP) value determination
For MDR reversal assays, cytotoxic agents were co-administered with compounds 4a–4e at equimolar concentrations in a range of 10 nM to 100 µM. IC₅₀ values were determined in ABCB1-overexpressing SW620 cell line variants. The enhancement of reversal potency (ERP) was calculated using the following formula: ERP = IC₅₀(drug)MDR / IC₅₀(drug + compound)MDR. All experiments were performed in triplicate (n = 3).

T1 sequence (P08183 whole entry): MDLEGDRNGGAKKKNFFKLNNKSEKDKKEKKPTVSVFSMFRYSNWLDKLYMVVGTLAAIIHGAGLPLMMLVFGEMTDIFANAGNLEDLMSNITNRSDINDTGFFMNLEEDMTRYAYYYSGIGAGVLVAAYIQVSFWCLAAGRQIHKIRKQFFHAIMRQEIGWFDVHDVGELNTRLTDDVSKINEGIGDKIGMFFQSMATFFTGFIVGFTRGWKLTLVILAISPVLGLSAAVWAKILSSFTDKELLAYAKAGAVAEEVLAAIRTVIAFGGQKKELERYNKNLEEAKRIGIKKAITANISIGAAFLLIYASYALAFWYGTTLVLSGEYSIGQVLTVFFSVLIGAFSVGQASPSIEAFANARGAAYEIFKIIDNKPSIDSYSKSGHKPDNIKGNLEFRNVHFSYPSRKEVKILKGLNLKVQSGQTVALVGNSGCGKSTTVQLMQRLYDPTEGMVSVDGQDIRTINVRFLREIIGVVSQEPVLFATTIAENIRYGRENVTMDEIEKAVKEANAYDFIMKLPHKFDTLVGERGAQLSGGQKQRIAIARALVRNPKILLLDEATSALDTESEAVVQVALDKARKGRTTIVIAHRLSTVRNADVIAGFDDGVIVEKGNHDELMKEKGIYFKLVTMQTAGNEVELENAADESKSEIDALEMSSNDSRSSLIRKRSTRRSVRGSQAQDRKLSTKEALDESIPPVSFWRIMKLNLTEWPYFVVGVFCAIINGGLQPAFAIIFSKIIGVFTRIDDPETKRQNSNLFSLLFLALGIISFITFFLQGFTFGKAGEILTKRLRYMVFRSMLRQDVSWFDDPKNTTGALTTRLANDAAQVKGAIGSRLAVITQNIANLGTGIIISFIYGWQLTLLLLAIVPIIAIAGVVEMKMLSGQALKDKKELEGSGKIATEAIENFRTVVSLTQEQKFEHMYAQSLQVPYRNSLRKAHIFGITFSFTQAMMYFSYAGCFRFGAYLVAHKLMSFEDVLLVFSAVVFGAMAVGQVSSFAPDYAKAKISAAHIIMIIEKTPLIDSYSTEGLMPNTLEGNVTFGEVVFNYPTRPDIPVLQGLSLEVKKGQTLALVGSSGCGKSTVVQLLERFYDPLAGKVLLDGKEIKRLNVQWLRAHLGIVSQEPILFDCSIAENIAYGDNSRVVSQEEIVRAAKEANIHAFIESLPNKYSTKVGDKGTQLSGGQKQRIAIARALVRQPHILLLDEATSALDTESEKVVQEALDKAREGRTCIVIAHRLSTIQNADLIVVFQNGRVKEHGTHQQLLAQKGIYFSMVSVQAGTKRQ

Take `O=C1N/C(=C\c2ccc(-[c-]3cccc3)cc2)C(=O)N2CCC[C@@H]12.[Fe+2].c1cc[cH-]c1` [(S,Z)-4d]: at ABCB1, the “UIC-2 antibody binding to ABCB1” value is given as “binding patterns expected for ABCB1 allocrites; also recorded: enhance UIC-2 antibody binding”. The “5D3 antibody binding to ABCG2” value at ABCG2 is “recognized as ABCG2 allocrites”. Besides, in the data set on SW620V cells, the “most synergistic area score” value is 24.93 and the synergy score worked out at 13.6. Also, in the data set on SW620M cells, the “most synergistic area score” value came to 0.00 and the synergy score entry was “–5.20”. In addition, in data set [1], the “ERP value, vincristine + compound” value was found to be 12.7 and the “ERP = IC50(drug)MDR/IC50(drug+4)MDR” value was 12.7.
In the case of `O=C1N/C(=C\c2ccccc2-[c-]2cccc2)C(=O)N2CCC[C@@H]12.[Fe+2].c1cc[cH-]c1` [(S,Z)-4b], the “UIC-2 antibody binding to ABCB1” value on ABCB1 is reported as “binding patterns expected for ABCB1 allocrites; also recorded: enhance UIC-2 antibody binding”. The “5D3 antibody binding to ABCG2” value on ABCG2 is “recognized as ABCG2 allocrites”. Also, in the data set on SW620V cells, the “most synergistic area score” value was 27.24 and the synergy score is 7.15. Moreover, in the data set on SW620M cells, the “most synergistic area score” value stood at 1.57 and the synergy score entry is given as “–5.03”. In data set [1], the “ERP value, vincristine + compound” value was 9.57 and the “ERP = IC50(drug)MDR/IC50(drug+4)MDR” value was determined as 9.57.
In the case of `O=C1N/C(=C/c2cccc(-[c-]3cccc3)c2)C(=O)N2CCC[C@@H]12.[Fe+2].c1cc[cH-]c1` [(S,E)-4c], the “UIC-2 antibody binding to ABCB1” value at ABCB1 is recorded as “no detectable interaction”. The “5D3 antibody binding to ABCG2” value at ABCG2 is “no detectable interaction”. In the data set on SW620M cells, the “most synergistic area score” value stood at 0.00 and the synergy score result is on record as “–2.83”. In addition, in data set [1], the “ERP value, vincristine + compound” value amounted to 0.81 and the “ERP = IC50(drug)MDR/IC50(drug+4)MDR” value is recorded as 0.81.
With `O=C1N/C(=C\[c-]2cccc2)C(=O)N2CCC[C@@H]12.[Fe+2].c1cc[cH-]c1` [(S,Z)-4a], on ABCB1, the “UIC-2 antibody binding to ABCB1” value is given as “binding patterns expected for ABCB1 allocrites”. Further, the “5D3 antibody binding to ABCG2” value on ABCG2 is given as “recognized as ABCG2 allocrites”. Also, in the data set on SW620V cells, the “most synergistic area score” value worked out at 15.88 and the synergy score turned out to be 4.27. Moreover, in the data set on SW620M cells, the “most synergistic area score” value amounted to 3.56 and the synergy score result is recorded as “–3.78”. For the same compound, in data set [1], the “ERP value, vincristine + compound” value is reported as 6.00 and the “ERP = IC50(drug)MDR/IC50(drug+4)MDR” value is given as 6.00.
For the compound `O=C1N/C(=C\c2ccccc2)C(=O)N2CCC[C@@H]12` [(S,Z)-4e], in data set [1], the “ERP value, vincristine + compound” value is 1.27 and the “ERP = IC50(drug)MDR/IC50(drug+4)MDR” value amounted to 1.27.
With `O=C1N/C(=C/c2ccccc2)C(=O)N2CCC[C@@H]12` [(S,E)-4e], in data set [1], the “ERP value, vincristine + compound” value is reported as 1.34 and the “ERP = IC50(drug)MDR/IC50(drug+4)MDR” value came to 1.37.

(Values after PMC12257394, “Design, Synthesis, and Biological Evaluation of Ferrocenyl–Cyclo-(Gly‑L‑Pro) Hybrids Sensitizing Multidrug-Resistant Cancer Cells to Anticancer Agents” (ACS Medicinal Chemistry Letters, 2025).)
